Measured values as given in patent publication US20040048747A1, “Product formulation and method of its application for increasing the efficiency of systemic herbicides” (priority 2000, published 2004).

How the values were obtained:
Assay type in all cases: in vivo
[1] = system: dandelion (Taraxacum cordátum Palmgr.); test: Greenhouse pot spray test, selected formates with selected systemic herbicides (Example 3), dandelion; settings: for desiccation of the leaves / damage (necrosis): formates 3000 ml (g) per decar, 6, 14 and 21 days after spraying
Protocol: Potassium diformate in a 50% water/volume solution (coded K-diform in the enclosed graphs). Potassium formate (50% w/v) (coded K-form in the enclosed graphs). Solid calcium formate solid was dissolved in water and coded Ca-form in the enclosed graphs. Dose rates applied were: 0 and 3000 ml (g) per decar (10^3 m^2).
“Roundup Bio” (360 gram/litre glyphosate), “Arsenal 250” (250 gram/litre imazapyr) and “Titus” (250 gram/kg rimsulfuron). The herbicides were applied at dose rates: 10%-40% of full rate:
Adjuvant: 0.1% wetting agent (“DP-spredemiddel”)
The formates, herbicides and adjuvants were mixed before spraying and applied at a calculated spray volume of 50 litre per decar (10^3 m^2). Seven pots were given each treatment.
The investigations were done on dandelion (Taraxacum cordátum Palmgr.):
The dandelion seeds were sown June 20 and transplanted to 13 cm plastic pots, one plant per pot. The plants were raised in a greenhouse. The spraying was carried out August 1 and the plants kept in greenhouse until harvest. Greenhouse conditions: 20-25° C. in 16 hrs, 14° C. in 8 hrs. Day length: 16 hrs artificial light.
Assessments of damage (necrosis): 6, 14 and 21 days after treatment (DAT). Regrowth and fresh weight were assessed 21 days after spraying.

Poa annua = test: Greenhouse pot spray test, potassium diformate and glyphosate combinations (Example 1), Poa annua; settings: glyphosate alone, compared with the combination
Description: (§1) The aim of this experiment was to investigate if a small dose of glyphosate, a foliage applied systemic herbicide, could extend the herbicide effect of potassium diformate. This is in particular important in perennial weeds, but also to have a complete kill of annual weeds.
(§2) Control of annual weeds will be essential in garden paths, roads, roadsides and other areas covered with gravel, bricks or flag stones. The weed must be totally killed since there is no competition from crop plants like in crop use situations. The aim of the experiment in greenhouse was to find methods to have optimal herbicide effect of K-diformate on different weed species and rape, which served as a model weed.
(§3) Seeds were sown in trays, and 2 seedlings were transplanted to 12 cm pots. The soil used was a mixture of 84% sphagnum, 10% sand and 6% clay. The pH was 5.8 and the soil was amended with balanced nutrients.
(§4) The temperature was set to 20° C. for 16 hours, 14° C. for 8 hours, but it varied ±3° C. Light period followed the natural day lengths, but artificial light was supplied 16 hours per day.
(§5) A wetting agent (0.1%) was used in order to secure complete contact with the plants to be treated. […]
(§6) Damage or injury of the plants was visually assessed after the following scale: […]

[2] = system: Dandelion (Taráxacum cordátum); test: Greenhouse pot spray test, potassium diformate and glyphosate combinations (Example 1), dandelion; settings: glyphosate alone, compared with the combination
Description: as §1, §2, §3, §4, §5, §6

| Compound | desiccation of the leaves / damage (necrosis) [1] | herbicide effect (speed and efficiency) (Poa annua) | herbicide effect (speed and efficiency) [2] | regrowth after mixing herbicide with formate ([1]; 21 days after spraying, lowest dose rates of Roundup and Titus, compared between formates) |
| --- | --- | --- | --- | --- |
| O=C[O-].O=C[O-].[Ca+2] [Ca-formate, calcium formate] | even less effective than K-formate |  |  |  |
| O=C[O-].[K+] [K-formate, Potassium formate] | less effective |  |  |  |
| O=C(O)CNCP(=O)(O)O [glyphosate] |  | much slower and very much less efficient | much slower and very much less efficient |  |
| O=CO.O=C[O-].[K+] [potassium diformate] | desiccated the leaves quickly |  |  | higher after mixing with K-diformate than mixing with Ca- or K-formate |
